{"source": "patent US20040052734A1", "about": "“Process for providing a stable crystalline form of salbutamol” (Boehringer Ingelheim Pharma GmbH & Co. KG, priority 2002, published 2004)", "format_in_all_cases": "physicochemical", "key": {"[1]": {"assay": "Powder X-ray diffraction at different temperatures under vacuum", "settings": "amorphous (produced by freeze-drying)", "procedure": "The Powder X-Ray Diffraction (Bruker, Rheinstetten, Germany) patterns were acquired at different temperatures using Cu-K α radiation (λ=1.5406 Å). The data were collected over an angular range of 2-40°2θ using a step size of 0,014°2θ and a step time of 2 sec."}, "[2]": {"assay": "Particle size analysis by powder laser diffraction (HELIOS, RODOS dry powder feeder)", "procedure": "Micronised powders were prepared with a MC Jetmill 50 (Jetpharma, Balerna, Switzerland). The micronised powder underwent different conditioning settings in a climate chamber ([…] GmbH, […], Germany). The temperature was set at 25° C. and 40° C. and the relative humidity was varied in a field between 45% and 75%, respectively. For “dry” conditioning settings the powders were prepared at a temperature of 70° C. in a thermal oven (Heraeus, Hanau, Germany). […] Samples were introduced through the RODOS dry powder feeder. The supply pressure of the injector was at 3 bar."}, "[3]": {"assay": "Recording of humidity (sorption behaviour of micronised, wrapped powder)", "settings": "unconditioned, stored at 55% RH", "procedure": "Using a humidity sensor (Ebro, Ingolstadt, Germany) the sorption behaviour of the micronised and wrapped powder was measured. With the help of a humidity sensor it is possible to observe the sorption behaviour of the micronised, in a PE-bag wrapped, powder. Approx. 30 g of the freshly grinded substance are wrapped in a PE-bag together with a humidity sensor and afterwards closed."}, "[4]": {"assay": "Isothermal microcalorimetry (amorphous content / recrystallisation)", "settings": "for amorphous amount: micronised, stored in opened TWO-Glass at room temperature (21.5° C., 42% RH)", "procedure": "The micronised powder underwent different conditioning settings in a climate chamber (Weiβ Klimatechnik GmbH, Reiskirchen-Lindstruth, Germany). The temperature was set at 25° C. and 40° C. and the relative humidity was varied in a field between 45% and 75%, respectively.\nFor “dry” conditioning settings the powders were prepared at a temperature of 70° C. in a thermal oven (Heraeus, Hanau, Germany).\nThe powder was investigated using a Thermal Activity Monitor (Type 2277, Thermometric, Sweden) at 25° C. The samples were weighted into a glass ampoule and a tube was added containing a saturated salt solution. The ampoule was sealed and equilibrated in the calorimeter for 5 min before lowering it into the measuring site."}, "[5]": {"settings": "Table 1 batch, micronised powder, before conditioning"}, "[6]": {"settings": "Table 2 batch, micronised powder, before conditioning"}, "[7]": {"settings": "micronised powder conditioned 5 hours by 70° C. (dry)"}}, "note": "Several values for one entry are separate records, joined by “and”; a condition that tells them apart may be missing. Equal entries are not always repeated."}
{"molecule": "CC(C)(C)NC[C@H](O)c1ccc(O)c(CO)c1", "note": "(racemic) [salbutamol sulphate]", "values": [{"measurement": "recrystallisation of amorphous material", "setting": "[1]", "result": "does not recrystallize under exclusion of humidity"}, {"measurement": "effect of additional conditioning duration on particle size", "setting": "[2]; 40° C. and 75% RH beyond five hours, storage under same conditions for two weeks", "result": "no effect on the particle size"}, {"measurement": "Particle size 10% <", "setting": "[2]; [5]", "result": 0.83, "unit": "μm"}, {"measurement": "Particle size 50% <", "setting": "[2]; [5]", "result": 1.94, "unit": "μm"}, {"measurement": "Particle size 90% <", "setting": "[2]; [5]", "result": 4.53, "unit": "μm"}, {"measurement": "Particle size 10% <", "setting": "[2]; [6]", "result": 0.70, "unit": "μm"}, {"measurement": "Particle size 50% <", "setting": "[2]; [6]", "result": "1.30 μm and 1.53 μm"}, {"measurement": "Particle size 90% <", "setting": "[2]; [6]", "result": 3.42, "unit": "μm"}, {"measurement": "Particle size 10% <", "setting": "[2]; conditioned 24 h 55% RH 25° C.", "result": 0.78, "unit": "μm"}, {"measurement": "Particle size 50% <", "setting": "[2]; conditioned 24 h 55% RH 25° C.", "result": 1.66, "unit": "μm"}, {"measurement": "Particle size 90% <", "setting": "[2]; conditioned 24 h 55% RH 25° C.", "result": 3.56, "unit": "μm"}, {"measurement": "Particle size 10% <", "setting": "[2]; conditioned 24 h 55% RH 40° C.", "result": 0.79, "unit": "μm"}, {"measurement": "Particle size 50% <", "setting": "[2]; conditioned 24 h 55% RH 40° C.", "result": 1.68, "unit": "μm"}, {"measurement": "Particle size 90% <", "setting": "[2]; conditioned 24 h 55% RH 40° C.", "result": 3.59, "unit": "μm"}, {"measurement": "Particle size 10% <", "setting": "[2]; conditioned 24 h 65% RH 25° C.", "result": 0.82, "unit": "μm"}, {"measurement": "Particle size 50% <", "setting": "[2]; conditioned 24 h 65% RH 25° C.", "result": 1.76, "unit": "μm"}, {"measurement": "Particle size 90% <", "setting": "[2]; conditioned 24 h 65% RH 25° C.", "result": 3.67, "unit": "μm"}, {"measurement": "Particle size 10% <", "setting": "[2]; conditioned 24 h 65% RH 40° C.", "result": 0.80, "unit": "μm"}, {"measurement": "Particle size 50% <", "setting": "[2]; conditioned 24 h 65% RH 40° C.", "result": 1.72, "unit": "μm"}, {"measurement": "Particle size 90% <", "setting": "[2]; conditioned 24 h 65% RH 40° C.", "result": 3.64, "unit": "μm"}, {"measurement": "Particle size 10% <", "setting": "[2]; conditioned 24 h 75% RH 25° C.", "result": 0.83, "unit": "μm"}, {"measurement": "Particle size 50% <", "setting": "[2]; conditioned 24 h 75% RH 25° C.", "result": 1.77, "unit": "μm"}, {"measurement": "Particle size 90% <", "setting": "[2]; conditioned 24 h 75% RH 25° C.", "result": 3.69, "unit": "μm"}, {"measurement": "Particle size 10% <", "setting": "[2]; conditioned 24 h 75% RH 40° C.", "result": 0.84, "unit": "μm"}, {"measurement": "Particle size 50% <", "setting": "[2]; conditioned 24 h 75% RH 40° C.", "result": 1.78, "unit": "μm"}, {"measurement": "Particle size 90% <", "setting": "[2]; conditioned 24 h 75% RH 40° C.", "result": 3.69, "unit": "μm"}, {"measurement": "uncontrolled particle growth in terms of particle diameters", "setting": "[2]; dry conditioning, then four weeks of storage", "result": "up to 16%"}, {"measurement": "Particle size 10% <", "setting": "[2]; [7]", "result": 0.82, "unit": "μm"}, {"measurement": "Particle size 50% <", "setting": "[2]; [7]", "result": 1.90, "unit": "μm"}, {"measurement": "Particle size 90% <", "setting": "[2]; [7]", "result": 4.45, "unit": "μm"}, {"measurement": "particle size on storage without conditioning", "setting": "[2]; wrapped, stored 21-23° C., approx. 45% RH, up to three months", "result": "shows likewise particle growth"}, {"measurement": "recrystallisation on storage", "setting": "[3]", "result": "completely recrystallized within one week"}, {"measurement": "recrystallisation after dry conditioning", "setting": "[4]; 70° C. for 5 hours", "result": "does not lead to recrystallisation"}, {"measurement": "reduction of the amorphous fraction", "setting": "[4]; conditioning at 25° C. and 45% RH for 24 hours", "result": 2.5, "unit": "%"}, {"measurement": "crystallinity after conditioning", "setting": "[4]; five hours of conditioning at 40° C. and 75% RH, partially amorphous powder", "result": "complete crystalline material"}, {"measurement": "amorphous content", "setting": "[4]; initial sample (micronised, before conditioning)", "result": 7.7, "unit": "%"}, {"measurement": "amorphous amount", "setting": "[4]; after 1st week", "result": 6.5, "unit": "%"}, {"measurement": "amorphous amount", "setting": "[4]; after 2nd week", "result": 5.4, "unit": "%"}, {"measurement": "amorphous amount", "setting": "[4]; after 4th week", "result": 4.5, "unit": "%"}, {"measurement": "amorphous content", "setting": "[4]; unconditioned powder, wrapped, stored four weeks at 21-23° C., approx. 45% RH", "result": "< 0.5", "unit": "%"}]}
